From patent publication US10351586B2, “Cytidine derivative dimers and applications thereof” (CHANGZHOU FANGYUAN PHARMACEUTICAL CO., LTD, priority 2014, dated 2019)
Marks after values point to notes of the source that are not given here.

Tested on: HCT-116 human colon cancer xenografts
Test: Tumor growth inhibition of HCT-116 human colon cancer xenografts in nude mice
Format: in vivo, Balb/c nude mice
Conditions: for Relative tumor proliferation rate (T/C %) / Relative tumor volume (RTV) / Tumor growth inhibition rate (TGI %) / Tumor volume of HCT-116 human colon cancer xenografts: single IP injection (QD×1), D1 and D2 400 mg/kg, D3 350 mg/kg, D4 300 mg/kg; for Tumor volume of HCT-116 human colon cancer xenografts: Mean±SEM
Description: 2. Preparation of the test substance was performed by dissolving the test substance using the following solvents:
3. Animal experiments were performed. […] Animals were numbered using their tail number.
4.1 Tumor cells were human HCT-116 colon cancer cells purchased from the Institute of Cell Biology, Chinese Academy of Sciences (Beijing, China). F-12 medium (containing 10% FBS) was used to culture cells in a carbon dioxide incubator at about 37° C., saturated humidity, under 5% CO2 and 95% air. Before inoculation, cells in logarithmic growth phase were collected. After digested by 0.25% trypsin, the cells were washed with PBS once. The cells were resuspended with serum-free medium and counted. Serum-free medium were used for cell resuspension, until the cell concentration was adjusted to about 3×10^7 cell/mL.
4.2 Animal inoculation and grouping were performed.
The diameters (D) of the tumor nodules were measured three times a week with a circle sizer ruler. In addition, the following formula was applied to calculate the volume of the tumor nodules (V): V=[…](D/2)^3 generally for a spherical shape. Evaluation indexes of antitumor activity were tumor growth inhibition rate TGI (%) and relative tumor proliferation rate T/C (%).
The calculation formula of TGI was: TGI (%)=(Vcontrol−VTreatment)/Vcontrol)×100%. The relative tumor volume (RTV) was calculated by: RTV=Vt/V0, where V0 is the tumor volume at the time of group administration, and Vt is the tumor volume at the time of measurement.
The mice were weighed 3 times every week.
4.5 Data and statistical analysis were provided.

[1] = D1 400 mg/kg Day 7, D2 400 mg/kg Day 9, D3 350 mg/kg Day 11, D4 300 mg/kg Day 11, single IP

CCCCOC(=O)Nc1ccn([C@H]2O[C@@H](COC(=O)CCC(=O)OC[C@H]3O[C@@H](n4ccc(NC(=O)OCCCC)nc4=O)C(F)(F)[C@@H]3O)[C@H](O)C2(F)F)c(=O)n1 (stereo in doubt) [Compound D2, 1,5-di-[4-N-(n-butoxycarbonyl)-2′-deoxy-2′,2′-difluoro-cytidine]glutarate]
Relative tumor proliferation rate, minimum [1]: 14.41% | Tumor inhibition rate, maximum [1]: 94.79% | Relative tumor proliferation rate (T/C %) (Day 0): 0.00% | Relative tumor volume (RTV) (Day 0): 1.00 | Tumor growth inhibition rate (TGI %) (Day 0): 0.00% | Tumor volume of HCT-116 human colon cancer xenografts (Day 0): 53.09 ± 9.33** mm^3 | Relative tumor proliferation rate (T/C %) (Day 1): 50.15% | Relative tumor volume (RTV) (Day 1): 0.89 ± 0.10 | Tumor growth inhibition rate (TGI %) (Day 1): 71.87% | Tumor volume of HCT-116 human colon cancer xenografts (Day 1): 50.78 ± 14.16** mm^3 | Relative tumor proliferation rate (T/C %) (Day 2): 40.78% | Relative tumor volume (RTV) (Day 2): 0.95 ± 0.15 | Tumor growth inhibition rate (TGI %) (Day 2): 74.81% | Tumor volume of HCT-116 human colon cancer xenografts (Day 2): 55.89 ± 18.82** mm^3 | Relative tumor proliferation rate (T/C %) (Day 4): 25.19% | Relative tumor volume (RTV) (Day 4): 0.73 ± 0.19 | Tumor growth inhibition rate (TGI %) (Day 4): 84.53% | Tumor volume of HCT-116 human colon cancer xenografts (Day 4): 45.96 ± 20.25** mm^3 | Relative tumor proliferation rate (T/C %) (Day 7): 16.63% | Relative tumor volume (RTV) (Day 7): 0.52 ± 0.23 | Tumor growth inhibition rate (TGI %) (Day 7): 91.71% | Tumor volume of HCT-116 human colon cancer xenografts (Day 7): 35.87 ± 21.79** mm^3 | Relative tumor proliferation rate (T/C %) (Day 9): 14.41% | Relative tumor volume (RTV) (Day 9): 0.46 ± 0.17 | Tumor growth inhibition rate (TGI %) (Day 9): 94.79% | Tumor volume of HCT-116 human colon cancer xenografts (Day 9): 30.75 ± 16.74** mm^3 | Relative tumor proliferation rate (T/C %) (Day 11): 16.77% | Relative tumor volume (RTV) (Day 11): 0.87 ± 0.35 | Tumor growth inhibition rate (TGI %) (Day 11): 94.13% | Tumor volume of HCT-116 human colon cancer xenografts (Day 11): 57.29 ± 33.0** mm^3 | Relative tumor proliferation rate (T/C %) (Day 14): 18.33% | Relative tumor volume (RTV) (Day 14): 1.80 ± 0.69 | Tumor growth inhibition rate (TGI %) (Day 14): 91.88% | Tumor volume of HCT-116 human colon cancer xenografts (Day 14): 116.87 ± 66.85** mm^3 | Relative tumor proliferation rate (T/C %) (Day 16): 21.64% | Relative tumor volume (RTV) (Day 16): 2.66 ± 0.88 | Tumor growth inhibition rate (TGI %) (Day 16): 90.63% | Tumor volume of HCT-116 human colon cancer xenografts (Day 16): 169.73 ± 88.15** mm^3 | Relative tumor proliferation rate (T/C %) (Day 18): 21.99% | Relative tumor volume (RTV) (Day 18): 4.20 ± 1.02 | Tumor growth inhibition rate (TGI %) (Day 18): 86.88% | Tumor volume of HCT-116 human colon cancer xenografts (Day 18): 262.10 ± 111.14** mm^3 | Relative tumor proliferation rate (T/C %) (Day 21): 34.57% | Relative tumor volume (RTV) (Day 21): 8.09 ± 1.52 | Tumor growth inhibition rate (TGI %) (Day 21): 79.99% | Tumor volume of HCT-116 human colon cancer xenografts (Day 21): 489.13 ± 174.91 mm^3 | Relative tumor proliferation rate (T/C %) (Day 23): 42.87% | Relative tumor volume (RTV) (Day 23): 8.48 ± 1.37 | Tumor growth inhibition rate (TGI %) (Day 23): 78.74% | Tumor volume of HCT-116 human colon cancer xenografts (Day 23): 501.98 ± 170.25 mm^3 | Relative tumor proliferation rate (T/C %) (Day 25): 44.51% | Relative tumor volume (RTV) (Day 25): 9.62 ± 1.48 | Tumor growth inhibition rate (TGI %) (Day 25): 77.96% | Tumor volume of HCT-116 human colon cancer xenografts (Day 25): 569.05 ± 189.18 mm^3 | Relative tumor proliferation rate (T/C %) (Day 28): 56.94% | Relative tumor volume (RTV) (Day 28): 12.03 ± 1.50 | Tumor growth inhibition rate (TGI %) (Day 28): 74.35% | Tumor volume of HCT-116 human colon cancer xenografts (Day 28): 689.78 ± 203.52 mm^3 | Relative tumor proliferation rate (T/C %) (Day 30): 63.87% | Relative tumor volume (RTV) (Day 30): 15.85 ± 1.92 | Tumor growth inhibition rate (TGI %) (Day 30): 67.91% | Tumor volume of HCT-116 human colon cancer xenografts (Day 30): 900.52 ± 250.44 mm^3 | Inhibition of growth of HCT-116 human colon cancer xenografts (in words) (single IP injection, 300-400 mg/kg): higher tumor inhibition rates
